{"source": "paper PMC3600310", "about": "“Phage Display Screening for Tumor Necrosis Factor-α-Binding Peptides: Detection of Inflammation in a Mouse Model of Hepatitis” (International Journal of Peptides, 2013)", "key": {"[1]": {"assay": "ELISA interaction of biotinylated peptides with PFBB coated plate (no target)", "type": "binding", "conditions": "free biotinylated peptide; plate coated with protein-free blocking buffer only; Kd* values could not be estimated", "method": "The affinity of the selected peptides was evaluated by ELISA as for the phage clones (see Section 2.1.3). The target was immobilized overnight on a 96-well plate at 4°C before a 2-hour incubation with a protein-free blocking buffer solution (PFBB, Pierce, Aalst, Belgium) and then with a range of peptide dilutions: 10^‒3 M to 10^‒6 M. The target-bound biotinylated peptides were detected using ABC (Avidin Biotin Complex) and ABTS solutions as described above. The dissociation constant was estimated from the inflection point of the curve."}, "TNF-α": {"test_system": "TNF-α", "assay": "TNF-α detection by biotinylated 2C and 2L peptides in liver histological sections", "set-up": "species or system mouse", "conditions": "biotinylated peptide 20 μM overnight, ABC complex/DAB, ex vivo", "method": "Adult mice (n = 6) received a single i.p. injection of 20 mg/Kg of ConA [21], a lymphocyte T activator producing inflammation in mice liver.\nMice were sacrificed 2 hours after intravenous injection of ConA, and their livers were fixed for 24 h in 4% paraformaldehyde. After fixation, the liver was dehydrated by several alcohol and butanol soakings and the organ was subsequently embedded in paraffin according to standard procedures. Sections of 4-micrometer thickness were cut for histological tests.\nTNF-α detection by the phage display-selected 2C and 2L peptides was carried out with the same protocol as for anti-TNF-α polyclonal antibody (see Section 2.4.2). Briefly, liver sections were incubated overnight with the biotinylated peptides (20 μM). Reactive sites were detected with the ABC complex and DAB staining."}, "human TNF-α [2]": {"target": "human TNF-α", "assay": "ELISA estimation of apparent dissociation constant (Kd*) between phage clones and TNF-α", "type": "binding", "conditions": "phage clones; ELISA Kd* on BSA divided by Kd* on TNF-α", "method": "(a) Estimation of the Apparent Dissociation Constant (K d*) between the Phage Clones and TNF-α. The K d* of phage clones against their target was assessed by the ELISA (enzyme-linked immunosorbent assay) method, using a range of phage dilutions incubated with the specific target.\nELISA plates were treated overnight with the target solution (human TNF-α, 0.01 mg/mL, at 4°C). The next day, the target solution was replaced by the blocking solution as described above. Plates were then incubated for 2 h at 37°C with serial phage dilutions (6.5 × 10^−11 – 3.3 × 10^−8 M) prepared in PBS containing 0.3% Tween 20. After rinsing the plate 6 times with the same buffer, phages were detected with a peroxidase-conjugated anti-M13 monoclonal antibody (Amersham Pharmacia Biotech Benelux, Roosendaal, The Netherlands) diluted 1 : 5000 in the blocking buffer. The peroxidase detection was performed using 2,2′-azino-bis[3-ethylbenztiazoline-6-sulfonic acid, diammonium salt] (ABTS, Sigma-Aldrich; 22 mg in 100 mL of 50 mM sodium citrate, pH 4.0) supplemented with 0.05% H2O2. After 30–60 min of incubation at room temperature, the OD405 values were measured on a microplate reader (Stat-Fax-2100, Awareness Technology Inc., Fisher Bioblock Scientific, Tournai, Belgium) for K d* evaluation."}, "human TNF-α [3]": {"test_system": "human TNF-α", "assay": "ELISA competition of phage clones with an anti-TNF-α antibody", "type": "binding", "conditions": "for IC50: antibody concentration that inhibits by 50% the phage-TNF-α interaction, antibody 1.3 × 10^−9 to 6.66 × 10^−7 M pre-incubated 30 min, then phage at Kd* concentration 1 h, high IC50 = strong phage binding, read-out: IC50 of the anti-TNF-α antibody against the phage clone; for IC50 Ab anti-TNF-α/Kd clone ratio: phage clones, IC50 of the anti-TNF-α antibody divided by Kd* of the clone", "method": "(b) Competition Experiments with an Anti-TNF-α Antibody. Competition experiments were performed in the same manner as the K d* experiments except that clones were set in competition with an anti-TNF-α antibody (R&D Systems Inc., Abington, UK) in dilutions ranging from 1.3 × 10^−9 to 6.66 × 10^−7 M in a PBS solution. Plates were first incubated for 30 min with 50 μL/well of antibody dilutions before a one-hour incubation with 50 μL of phage solutions at the K d* concentration. The IC50 of the anti-TNF-α antibody is the antibody concentration required to inhibit by 50% the interaction between phages and TNF-α.\nThe objective of this test is to set up a competition between every phage clone and another ligand of the target to calculate an inhibition constant value (IC50)."}}}
{"substance": "(C-)PATLTSL(-C) (disulfide) [Clone 2C, biotinylated cyclic form of the PATLTSL peptide (peptide 2)]", "values": [{"measurement": "Interaction with the PFBB coated plate", "setting": "[1]", "value": "only a weak interaction"}, {"measurement": "Staining of healthy liver sections", "setting": "TNF-α", "value": "did not show such a staining"}]}
{"substance": "C-GSKTQAP-C (disulfide) [Clone C2-R3, phage clone 2 from biopanning round 3 displaying cyclic heptapeptide C-GSKTQAP-C]", "values": [{"measurement": "Kd BSA/Kd TNF-α ratio", "setting": "human TNF-α [2]", "value": "6 × 10^6"}, {"measurement": "IC50", "setting": "human TNF-α [3]", "value": 112, "unit": "nM"}, {"measurement": "IC50 Ab anti-TNF-α/Kd clone ratio", "setting": "human TNF-α [3]", "value": 1087}]}
{"substance": "C-NNPLKSL-C (disulfide) [Clone C47-R4, phage clone 47 from round 4 displaying cyclic heptapeptide C-NNPLKSL-C]", "values": [{"measurement": "Kd BSA/Kd TNF-α ratio", "setting": "human TNF-α [2]", "value": 0.02}]}
{"substance": "C-PATLTSL-C (disulfide) [Clone C30-R3, phage clone 30 from round 3 displaying cyclic heptapeptide C-PATLTSL-C]", "values": [{"measurement": "Kd BSA/Kd TNF-α ratio", "setting": "human TNF-α [2]", "value": "4.2 × 10^6"}, {"measurement": "IC50", "setting": "human TNF-α [3]", "value": 127, "unit": "nM"}, {"measurement": "IC50 Ab anti-TNF-α/Kd clone ratio", "setting": "human TNF-α [3]", "value": 6195}]}
{"substance": "PATLTSL [Clone 2L, biotinylated linear form of the PATLTSL peptide (peptide 2)]", "values": [{"measurement": "Interaction with the PFBB coated plate", "setting": "[1]", "value": "only a weak interaction"}, {"measurement": "Staining of liver sections of ConA-treated mice", "setting": "TNF-α; C57BL/6 mice, ConA 20 mg/Kg, sacrificed 2 hours after injection", "value": "did not yield such a result"}]}
